The text below walks through data of patent US10377770B2 (Novartis AG, priority 2015, dated 2019).

For orientation: IC50 means the point on the concentration scale where inhibition reaches its midpoint. Read a low IC50 as greater potency.

For this assay, the target named is C-Raf FL (full length CRAF with Y340E and Y341E activating mutations, co-expressed with h14-3-3 zeta) (Homo sapiens (Human), UniProt P04049, Y340E/Y341E). Put plainly: In vitro Raf activity determination, AlphaScreen p-MEK readout, c-Raf (C-Raf FL). The following applies: c-Raf approximately 4 nM, ATP 1 μM, pre-incubation 60 minutes, reaction 1 hour. It counts as biochemical. From the text: Sf9 cells co-expressing both proteins were lysed and subjected to immobilized nickel chromatography and eluted with Imidazole. A second column (StrepII binding column) was used and eluted with desthiobiotin. Protein Tags were removed using Prescission enzyme and the protein was further purified using a flowthrough step to remove tags.
C-Raf FL (full length CRAF with Y340E and Y341E activating mutations, co-expressed with h14-3-3 zeta), sequence (P04049 whole entry Y340E/Y341E, the tested form may be a part): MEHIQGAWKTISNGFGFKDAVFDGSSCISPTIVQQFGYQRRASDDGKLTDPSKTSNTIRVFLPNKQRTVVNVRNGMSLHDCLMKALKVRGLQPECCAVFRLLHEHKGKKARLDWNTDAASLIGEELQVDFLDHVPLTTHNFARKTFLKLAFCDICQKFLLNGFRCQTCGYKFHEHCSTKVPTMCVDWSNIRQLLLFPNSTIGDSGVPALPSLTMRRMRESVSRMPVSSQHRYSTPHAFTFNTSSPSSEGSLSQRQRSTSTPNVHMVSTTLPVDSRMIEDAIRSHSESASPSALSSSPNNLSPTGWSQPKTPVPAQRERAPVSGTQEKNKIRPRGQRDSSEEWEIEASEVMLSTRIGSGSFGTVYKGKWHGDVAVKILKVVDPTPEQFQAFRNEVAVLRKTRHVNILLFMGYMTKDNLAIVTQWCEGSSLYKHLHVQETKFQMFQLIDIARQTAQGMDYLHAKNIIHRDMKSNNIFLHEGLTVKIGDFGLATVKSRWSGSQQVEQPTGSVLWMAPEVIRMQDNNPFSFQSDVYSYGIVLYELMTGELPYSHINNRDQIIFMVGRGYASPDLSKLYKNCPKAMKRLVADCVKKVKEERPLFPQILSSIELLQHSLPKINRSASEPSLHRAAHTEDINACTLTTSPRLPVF
C-Raf FL (full length CRAF with Y340E and Y341E activating mutations, co-expressed with h14-3-3 zeta), sequence (P63104 whole entry partner, the tested form may be a part): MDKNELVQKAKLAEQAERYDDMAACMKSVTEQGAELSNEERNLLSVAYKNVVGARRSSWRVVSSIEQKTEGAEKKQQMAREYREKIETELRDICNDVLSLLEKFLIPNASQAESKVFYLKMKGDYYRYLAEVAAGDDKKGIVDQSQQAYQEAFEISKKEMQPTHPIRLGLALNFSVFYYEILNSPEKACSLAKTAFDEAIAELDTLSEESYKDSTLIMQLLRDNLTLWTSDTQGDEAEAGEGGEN
C-Raf TR refers to a truncated C-Raf protein, a Δ1-324 deletion mutant. C-Raf FL refers to the full-length C-Raf protein.
Full length MEK1 with an inactivating K97R ATP binding site mutation is utilized as a RAF substrate. The MEK1 cDNA was subcloned with an N-terminal (his)6 tag into a vector for E. Coli expression. The MEK1 substrate was purified from E. Coli lysate by nickel affinity chromatography followed by anion exchange. The final MEK1 preparation was biotinylated (Pierce EZ-Link Sulfo-NHS-LC-Biotin) and concentrated.
Assay Materials: Assay buffer is 50 mM Tris, pH 7.5, 15 mM MgCl2, 0.01% Bovine Serum Albumin (BSA) and 1 mM dithiothreitol (DTT); Stop buffer is 60 mM ethylenediaminetetraacetic acid (EDTA) and 0.01% Tween® 20; b-Raf (V600E), active; biotinylated Mek, kinase dead; Alpha Screen detection kit (available from PerkinElmer™, #6760617R); Anti phospho-MEK1/2 (available from Cell Signaling Technology, Inc. #9121); 384 well low volume assay plates (White Greiner® plates).
Assay conditions: b-Raf (V600E) approximately 4 pM; c-Raf approximately 4 nM; biotinylated Mek, kinase dead approximately 10 nM; ATP 10 μM for BRAF (V600E) and 1 μM for CRAF; Pre-incubation time with compounds 60 minutes at room temperature; Reaction time 1 or 3 hours at room temperature.
Assay protocol: Raf and biotinylated Mek (kinase dead) were combined at 2× final concentrations in assay buffer (50 mM Tris, pH 7.5, 15 mM MgCl2, 0.01% BSA and 1 mM DTT) and dispensed […] per well in assay plates (Greiner white 384 well assay plates #781207) containing […] of 40× of a Raf kinase inhibitor test compound diluted in 100% DMSO. The plate was incubated for 60 minutes at room temperature. The Raf kinase activity reaction was started by the addition of […] per well of 2×ATP diluted in assay buffer. After 3 hours (b-Raf(V600E)) or 1 hour (c-Raf). The reactions were stopped and the phosphorylated product was measured using a rabbit anti-p-MEK (Cell Signaling, #9121) antibody and the Alpha Screen IgG (ProteinA) detection Kit (PerkinElmer #6760617R), by the addition of […] to the well of a mixture of the antibody (1:2000 dilution) and detection beads (1:2000 dilution of both beads) in Stop/bead buffer (25 mM EDTA, 50 mM Tris, pH 7.5, 0.01% Tween20). The additions were carried out under dark conditions to protect the detection beads from light. A lid was placed on top of the plate and incubated for 1 hour at room temperature, after which the luminescence was read on a PerkinElmer Envision instrument.

The compound `CCNC(=O)C1Cc2ccc(-c3cc(NC(=O)c4ccnc(C(F)(F)F)c4)ccc3C)cc2N2CCOCC12` (racemic) [Example 73, (rac)-N-ethyl-9-(2-methyl-5-(2-(trifluoromethyl)isonicotinamido)phenyl)-1,2,4,4a,5,6-hexahydro-[1,4]oxazino[4,3-a]quinoline-5-carboxamide] registered an IC50 of 0.2 nM.

In turn, `CCNC(=O)C1Cc2ccc(-c3cc(NC(=O)c4ccnc(C(C)(F)F)c4)ccc3C)cc2N2CCOCC12` (racemic) [Example 74, (rac)-9-(5-(2-(1,1-difluoroethyl)isonicotinamido)-2-methylphenyl)-N-ethyl-1,2,4,4a,5,6-hexahydro-[1,4]oxazino[4,3-a]quinoline-5-carboxamide] gave an IC50 of 0.28 nM.

`CCNC(=O)C1Cc2ccc(-c3cc(NC(=O)c4cccc(C(F)(F)F)c4)cnc3C)cc2N2CCOCC12` (racemic) [Example 75, (rac)-N-ethyl-9-(2-methyl-5-(3-(trifluoromethyl)benzamido)pyridin-3-yl)-1,2,4,4a,5,6-hexahydro-[1,4]oxazino[4,3-a]quinoline-5-carboxamide] registered an IC50 of 0.48 nM.

The compound `Cc1ccc(NC(=O)c2ccnc(C(C)(F)F)c2)cc1-c1ccc2c(c1)N1CCOCC1C(F)(CO)C2` (racemic) [Example 78, (rac)-2-(1,1-difluoroethyl)-N-(3-(5-fluoro-5-(hydroxymethyl)-1,2,4,4a,5,6-hexahydro-[1,4]oxazino[4,3-a]quinolin-9-yl)-4-methylphenyl)isonicotinamide] returned a half-inhibitory concentration (IC50) of 0.02 nM.

Consider `Cc1ncc(NC(=O)c2ccnc(C(C)(F)F)c2)cc1-c1ccc2c(c1)N1CCOCC1C(F)(CO)C2` (racemic) [Example 79, (rac)-2-(1,1-difluoroethyl)-N-(5-(5-fluoro-5-(hydroxymethyl)-1,2,4,4a,5,6-hexahydro-[1,4]oxazino[4,3-a]quinolin-9-yl)-6-methylpyridin-3-yl)isonicotinamide], for which the half-maximal inhibitory concentration (IC50) came out at 0.038 nM.

Turning to `Cc1ncc(NC(=O)c2ccnc(C(C)(F)F)c2)cc1-c1ccc2c(c1)N1CCOC[C@H]1[C@](C)(C#N)C2` (racemic) [Example 87, (rac)-N-(5-(5-cyano-5-methyl-1,2,4,4a,5,6-hexahydro-[1,4]oxazino[4,3-a]quinolin-9-yl)-6-methylpyridin-3-yl)-2-(1,1-difluoroethyl)isonicotinamide], the IC50 came out at 0.022 nM.

In the case of `Cc1ccc(NC(=O)c2ccnc(C(C)(F)F)c2)cc1-c1ccc2c(c1)N1CCOC[C@H]1[C@@](C)(C#N)C2` (racemic) [Example 88, (rac)-N-(3-(5-cyano-5-methyl-1,2,4,4a,5,6-hexahydro-[1,4]oxazino[4,3-a]quinolin-9-yl)-4-methylphenyl)-2-(1,1-difluoroethyl)isonictinamide], it took 0.032 nM to reach half-maximal inhibition (IC50).

Turning to `Cc1ncc(NC(=O)c2ccnc(C(C)(F)F)c2)cc1-c1ccc2c(c1)N1CCOC[C@H]1[C@@](C)(C#N)C2` (racemic) [Example 89, (rac)-N-(5-(5-cyano-5-methyl-1,2,4,4a,5,6-hexahydro-[1,4]oxazino[4,3-a]quinolin-9-yl)-6-methylpyridin-3-yl)-2-(1,1-difluoroethyl)isonicotinamide], it took 0.036 nM to reach half-maximal inhibition (IC50).

In the case of `Cc1ccc(NC(=O)c2ccnc(C(C)(F)F)c2)cc1-c1ccc2c(c1)N1CCOC[C@H]1[C@H](C#N)C2` (racemic) [Example 90, (rac)-N-(3-(5-cyano-1,2,4,4a,5,6-hexahydro-[1,4]oxazino[4,3-a]quinolin-9-yl)-4-methylphenyl)-2-(1,1-difluoroethyl)isonicotinamid], the concentration for half-maximal inhibition (IC50) stood at 0.023 nM.

Compound `Cc1ncc(NC(=O)c2ccnc(C(C)(F)F)c2)cc1-c1ccc2c(c1)N1CCOC[C@H]1[C@H](C#N)C2` (racemic) [Example 91, (rac)-N-(5-(5-cyano-1,2,4,4a,5,6-hexahydro-[1,4]oxazino[4,3-a]quinolin-9-yl)-6-methylpyridin-3-yl)-2-(1,1-difluoroethyl)isonicotinamide] gave an IC50 of 0.076 nM.
